The source of these data is article PMC10070484, “Structure and mechanism of oxalate transporter OxlT in an oxalate-degrading bacterium in the gut microbiota” (Nature Communications, 2023).

Test in all cases: GFP thermal shift (GFP-TS)
Holding throughout (format): binding
Common to all, as to conditions: 3 mM potassium oxalate; crude DDM-solubilised OxlT-GFPuv from E. coli membranes; 300 mM potassium acetate, pH 7.0

Test [1] deals with T1, OxlT (Oxalobacter formigenes, UniProt Q51330, N268A).
T1 construct: full-length; C-terminal nona-His tag from E. coli XL3 (crystal, purified); C-terminal GFPuv fusion from E. coli BL21(DE3) in DDM (GFP-TS); pRSF-OxlT for transport; monomer

In test [2] the target is T2, OxlT (Oxalobacter formigenes, UniProt Q51330, Q34A).
T2 construct: full-length; C-terminal nona-His tag from E. coli XL3 (crystal, purified); C-terminal GFPuv fusion from E. coli BL21(DE3) in DDM (GFP-TS); pRSF-OxlT for transport; monomer

Test [3] addresses T3, OxlT (Oxalobacter formigenes, UniProt Q51330, Y124A).
T3 construct: full-length; C-terminal nona-His tag from E. coli XL3 (crystal, purified); C-terminal GFPuv fusion from E. coli BL21(DE3) in DDM (GFP-TS); pRSF-OxlT for transport; monomer

The target of test [4] is T4, OxlT (Oxalobacter formigenes, UniProt Q51330, Y35A).
T4 construct: full-length; C-terminal nona-His tag from E. coli XL3 (crystal, purified); C-terminal GFPuv fusion from E. coli BL21(DE3) in DDM (GFP-TS); pRSF-OxlT for transport; monomer

In test [5] the target is T5, OxlT (Oxalobacter formigenes, UniProt Q51330, K355Q).
T5 construct: full-length; C-terminal nona-His tag from E. coli XL3 (crystal, purified); C-terminal GFPuv fusion from E. coli BL21(DE3) in DDM (GFP-TS); pRSF-OxlT for transport; monomer

The target in test [6] is T6, OxlT (Oxalobacter formigenes, UniProt Q51330, Y150A).
T6 construct: full-length; C-terminal nona-His tag from E. coli XL3 (crystal, purified); C-terminal GFPuv fusion from E. coli BL21(DE3) in DDM (GFP-TS); pRSF-OxlT for transport; monomer

The target of test [7] is T7, OxlT (Oxalobacter formigenes, UniProt Q51330).
T7 construct: full-length; C-terminal nona-His tag from E. coli XL3 (crystal, purified); C-terminal GFPuv fusion from E. coli BL21(DE3) in DDM (GFP-TS); pRSF-OxlT for transport; monomer
T7 sequence (Q51330 1-418): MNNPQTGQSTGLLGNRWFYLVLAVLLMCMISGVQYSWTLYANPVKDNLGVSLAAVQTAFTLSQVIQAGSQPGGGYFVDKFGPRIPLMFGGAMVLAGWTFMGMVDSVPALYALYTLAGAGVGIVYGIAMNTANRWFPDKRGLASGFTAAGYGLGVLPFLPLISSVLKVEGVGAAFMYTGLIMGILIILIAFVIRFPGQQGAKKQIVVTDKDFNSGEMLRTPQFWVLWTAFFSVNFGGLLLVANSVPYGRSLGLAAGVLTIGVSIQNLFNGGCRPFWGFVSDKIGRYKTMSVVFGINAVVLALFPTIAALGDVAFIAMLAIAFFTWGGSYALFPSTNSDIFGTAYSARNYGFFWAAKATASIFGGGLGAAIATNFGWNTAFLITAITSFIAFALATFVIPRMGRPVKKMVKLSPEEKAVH

Test [8] deals with T8, OxlT (Oxalobacter formigenes, UniProt Q51330, Y328A).
T8 construct: full-length; C-terminal nona-His tag from E. coli XL3 (crystal, purified); C-terminal GFPuv fusion from E. coli BL21(DE3) in DDM (GFP-TS); pRSF-OxlT for transport; monomer

In test [9] the target is T9, OxlT (Oxalobacter formigenes, UniProt Q51330, W324A).
T9 construct: full-length; C-terminal nona-His tag from E. coli XL3 (crystal, purified); C-terminal GFPuv fusion from E. coli BL21(DE3) in DDM (GFP-TS); pRSF-OxlT for transport; monomer

The target of test [10] is T10, OxlT (Oxalobacter formigenes, UniProt Q51330, W352A).
T10 construct: full-length; C-terminal nona-His tag from E. coli XL3 (crystal, purified); C-terminal GFPuv fusion from E. coli BL21(DE3) in DDM (GFP-TS); pRSF-OxlT for transport; monomer

Test [11] concerns the target T11, OxlT (Oxalobacter formigenes, UniProt Q51330, R272A).
T11 construct: full-length; C-terminal nona-His tag from E. coli XL3 (crystal, purified); C-terminal GFPuv fusion from E. coli BL21(DE3) in DDM (GFP-TS); pRSF-OxlT for transport; monomer

T10 sequence (Q51330 whole entry W352A, the tested form may be a part): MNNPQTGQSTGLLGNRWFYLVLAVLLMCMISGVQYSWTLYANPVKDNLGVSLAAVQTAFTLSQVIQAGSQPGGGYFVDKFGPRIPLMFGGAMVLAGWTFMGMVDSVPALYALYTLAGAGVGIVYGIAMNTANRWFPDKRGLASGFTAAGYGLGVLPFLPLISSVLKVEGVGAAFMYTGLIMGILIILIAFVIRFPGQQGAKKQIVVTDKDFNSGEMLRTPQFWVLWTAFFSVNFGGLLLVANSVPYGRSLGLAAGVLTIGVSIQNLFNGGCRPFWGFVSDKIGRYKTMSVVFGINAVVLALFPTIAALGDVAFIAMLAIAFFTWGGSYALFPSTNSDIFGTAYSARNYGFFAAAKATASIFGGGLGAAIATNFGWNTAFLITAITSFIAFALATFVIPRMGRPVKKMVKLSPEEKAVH
T2 sequence (Q51330 whole entry Q34A, the tested form may be a part): as the sequence (Q51330 whole entry W352A, the tested form may be a part) above, with Q34A, A352W counted along it
T6 sequence (Q51330 whole entry Y150A, the tested form may be a part): as the sequence (Q51330 whole entry W352A, the tested form may be a part) above, with Y150A, A352W counted along it
T1 sequence (Q51330 whole entry N268A, the tested form may be a part): as the sequence (Q51330 whole entry W352A, the tested form may be a part) above, with N268A, A352W counted along it
T3 sequence (Q51330 whole entry Y124A, the tested form may be a part): as the sequence (Q51330 whole entry W352A, the tested form may be a part) above, with Y124A, A352W counted along it
T4 sequence (Q51330 whole entry Y35A, the tested form may be a part): as the sequence (Q51330 whole entry W352A, the tested form may be a part) above, with Y35A, A352W counted along it
T8 sequence (Q51330 whole entry Y328A, the tested form may be a part): as the sequence (Q51330 whole entry W352A, the tested form may be a part) above, with Y328A, A352W counted along it
T11 sequence (Q51330 whole entry R272A, the tested form may be a part): as the sequence (Q51330 whole entry W352A, the tested form may be a part) above, with R272A, A352W counted along it
T9 sequence (Q51330 whole entry W324A, the tested form may be a part): as the sequence (Q51330 whole entry W352A, the tested form may be a part) above, with W324A, A352W counted along it
T5 sequence (Q51330 whole entry K355Q, the tested form may be a part): as the sequence (Q51330 whole entry W352A, the tested form may be a part) above, with A352W, K355Q counted along it

Regarding `O=C(O)C(=O)O` [oxalate], the dTm entry at OxlT [1] was “reduced in the mutant OxlT proteins Q34A, Y35A, Y124A, Y150A, N268A, R272A, W324A and K355Q”; on OxlT [2], “reduced in the mutant OxlT proteins Q34A, Y35A, Y124A, Y150A, N268A, R272A, W324A and K355Q”; on OxlT [3] it was “reduced in the mutant OxlT proteins Q34A, Y35A, Y124A, Y150A, N268A, R272A, W324A and K355Q”; at OxlT [4] it was “reduced in the mutant OxlT proteins Q34A, Y35A, Y124A, Y150A, N268A, R272A, W324A and K355Q”; at OxlT [5], “reduced in the mutant OxlT proteins Q34A, Y35A, Y124A, Y150A, N268A, R272A, W324A and K355Q”; on OxlT [6], “reduced in the mutant OxlT proteins Q34A, Y35A, Y124A, Y150A, N268A, R272A, W324A and K355Q”. In addition, the dTm entry at OxlT [7] was “In the GFP-TS assay, wild-type OxlT exhibited thermal stabilisation upon oxalate binding”; on OxlT [8] it was “Y328A and W352A showed similar oxalate binding but reduced oxalate uptake activities”; at OxlT [9] it was “reduced in the mutant OxlT proteins Q34A, Y35A, Y124A, Y150A, N268A, R272A, W324A and K355Q”; on OxlT [10], “Y328A and W352A showed similar oxalate binding but reduced oxalate uptake activities”; on OxlT [11], “reduced in the mutant OxlT proteins Q34A, Y35A, Y124A, Y150A, N268A, R272A, W324A and K355Q”.
